# Literature values in US12637369B2, “Method for selectively removing perfluorinated compounds with electrooxidation” (SK hynix Inc., priority 2021, dated 2026).
# Experiments:
# [1] = not given; remark: listed apart in the source
SMILES,Solubility in water,pKa [1]
"O=S(=O)(O)C(F)(F)C(F)(F)C(F)(F)C(F)(F)F [PFBS, Perfluorobutane sulfonic acid]",Very high,−3.94
"O=C(O)C(F)(F)C(F)(F)C(F)(F)C(F)(F)C(F)(F)C(F)(F)C(F)(F)C(F)(F)F [PFNA, Perfluorononanoic acid]",9500 µg/mL,2-3
"O=C(O)C(F)(F)C(F)(F)C(F)(F)C(F)(F)C(F)(F)C(F)(F)C(F)(F)F [PFOA, Perfluorooctanoic acid]",3400 µg/mL,–
"O=S(=O)(O)C(F)(F)C(F)(F)C(F)(F)C(F)(F)C(F)(F)C(F)(F)C(F)(F)C(F)(F)F [PFOS, Perfluorooctane sulfonic acid]",570 µg/mL,−3.27
